US20140221499A1, “NOVEL RODENT CONTROL AGENTS AND USES THEREOF” (priority 2011, published 2014)

Key:
[1] = target: T1, rTAAR9 (Rattus norvegicus, UniProt Q923Y6); assay: CRE-SEAP reporter gene assay in HEK293 cells transfected with rTAAR9; format: cell-based; settings: FIG. 11A, functional with or without 'Rho tag', EC50 ± s.e.m., 4-parameter Hill equation
T1 construct: Full Taar coding regions were cloned into pcDNA3.1; expressed in transfected cells; host or cells: HEK293
T1 sequence (Q923Y6 1-338): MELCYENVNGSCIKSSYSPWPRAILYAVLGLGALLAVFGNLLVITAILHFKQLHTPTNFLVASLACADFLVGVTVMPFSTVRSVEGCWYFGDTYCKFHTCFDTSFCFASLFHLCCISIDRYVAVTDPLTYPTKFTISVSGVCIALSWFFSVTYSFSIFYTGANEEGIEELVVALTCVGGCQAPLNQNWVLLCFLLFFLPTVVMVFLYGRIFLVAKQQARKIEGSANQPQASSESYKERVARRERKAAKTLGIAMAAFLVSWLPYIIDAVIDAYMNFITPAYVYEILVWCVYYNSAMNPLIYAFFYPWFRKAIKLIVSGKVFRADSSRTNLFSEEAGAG
Method: (§1) FIG. 11 illustrates the dose-dependent responses of TAARs to amines. HEK293 cells were cotransfected with plasmids encoding CRE-SEAP and rTAARs (a) or mTAARs (b), incubated with concentrations of ligands indicated, and assayed for reporter activity (triplicates±s.d.). EC50 values (±s.e.m, bottom right) were calculated using SigmaPlot (Systat Software) and a 4-parameter Hill equation.
(§2) The following mixes (10 μM of each indicated compounds) were tested for their ability to activate rat TAARs. Mix 1: butylamine, dibutylamine, hexylamine. Mix 2: 2-aminopentane, isoamylamine, isobutylamine, isopropylamine. Mix 3: N,N-dimethylcyclohexylamine, 1-methylindole, tryptamine, phenylethylamine. Mix 4: indole, 1-methylpyrrolidine, 1-methylpiperidine, pyrrolidine. […]
(§3) Full Taar coding regions were cloned into pcDNA3.1-(Invitrogen) with or without a 5′ DNA extension of 69 bp encoding the first 20 amino acids of bovine rhodopsin followed by a cloning linker ([…]). […] Fluorescence was measured on an EnVision plate reader (Perkin Elmer) and SEAP activity graphed as relative fluorescence of a phosphatase substrate.
(§4) Here, we set out to identify agonists for additional mouse and rat TAARs. […] Transfected cells were incubated with test chemicals, and phosphatase activity was quantified with a fluorescent substrate as a reporter for TAAR activation. […]

[2] = target: T2, rTAAR8c (Rattus norvegicus, UniProt Q923Y0); assay: CRE-SEAP reporter gene assay in HEK293 cells transfected with rTAAR8c; format: cell-based; settings: FIG. 11A, functional with or without 'Rho tag', EC50 ± s.e.m., 4-parameter Hill equation
T2 construct: Full Taar coding regions were cloned into pcDNA3.1; expressed in transfected cells; host or cells: HEK293
T2 sequence (Q923Y0 1-344): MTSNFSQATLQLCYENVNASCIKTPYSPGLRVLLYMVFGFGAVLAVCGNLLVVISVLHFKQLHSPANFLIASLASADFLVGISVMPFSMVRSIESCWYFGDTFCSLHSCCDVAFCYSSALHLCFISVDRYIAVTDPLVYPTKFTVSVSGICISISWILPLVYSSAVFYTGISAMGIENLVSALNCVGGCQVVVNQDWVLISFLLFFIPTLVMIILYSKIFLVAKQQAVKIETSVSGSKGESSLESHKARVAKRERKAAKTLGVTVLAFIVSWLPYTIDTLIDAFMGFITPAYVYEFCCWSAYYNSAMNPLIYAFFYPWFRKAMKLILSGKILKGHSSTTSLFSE
Method: as §1, §2, §3, §4

[3] = target: T3, rTAAR7h (Rattus norvegicus, UniProt Q923Y4); assay: CRE-SEAP reporter gene assay in HEK293 cells transfected with rTAAR7h; format: cell-based; design: Full Taar coding regions were cloned into pcDNA3.1; expressed in transfected cells; host or cells: HEK293; settings: FIG. 11A, functional with or without 'Rho tag', EC50 ± s.e.m., 4-parameter Hill equation
T3 sequence (Q923Y4 1-358): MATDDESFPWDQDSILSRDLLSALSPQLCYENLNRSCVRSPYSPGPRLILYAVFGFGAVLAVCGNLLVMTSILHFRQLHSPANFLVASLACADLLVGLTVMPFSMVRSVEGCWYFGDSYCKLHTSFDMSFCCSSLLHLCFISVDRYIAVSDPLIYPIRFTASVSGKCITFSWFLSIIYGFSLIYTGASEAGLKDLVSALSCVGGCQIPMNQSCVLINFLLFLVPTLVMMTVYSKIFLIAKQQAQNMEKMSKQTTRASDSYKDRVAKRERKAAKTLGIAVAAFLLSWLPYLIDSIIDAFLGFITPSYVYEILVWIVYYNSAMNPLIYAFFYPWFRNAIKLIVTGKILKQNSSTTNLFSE
Method: as §1, §2, §3, §4

[4] = target: T4, mTAAR7b (Mus musculus, UniProt Q5QD11); assay: CRE-SEAP reporter gene assay in HEK293 cells transfected with mTAAR7b; format: cell-based; design: Full Taar coding regions were cloned into pcDNA3.1; expressed in transfected cells; host or cells: HEK293; settings: FIG. 11B, functional with or without 'Rho tag', EC50 ± s.e.m., 4-parameter Hill equation
T4 sequence (Q5QD11 1-358): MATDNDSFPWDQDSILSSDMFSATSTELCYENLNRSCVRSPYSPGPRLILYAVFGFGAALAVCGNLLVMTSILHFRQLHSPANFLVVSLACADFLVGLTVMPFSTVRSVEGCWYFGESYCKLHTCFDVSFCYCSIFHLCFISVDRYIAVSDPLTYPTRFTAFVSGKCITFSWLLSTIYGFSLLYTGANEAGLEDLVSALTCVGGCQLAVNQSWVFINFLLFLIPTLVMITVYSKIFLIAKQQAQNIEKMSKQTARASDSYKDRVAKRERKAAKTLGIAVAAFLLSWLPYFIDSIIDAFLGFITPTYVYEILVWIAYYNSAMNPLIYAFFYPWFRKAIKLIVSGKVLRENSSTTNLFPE
Method: as §1
Chemicals tested for the ability to activate mouse TAARs include those previously described (Liberles, S. D., and Buck, L. B. (2006) A second class of chemosensory receptors in the olfactory epithelium, Nature 442, 645-650), as well as the following mixes (5 μM of each indicated compounds). Mix 1: N,N-dimethyl-cyclohexylamine, N,N-dimethyl-phenylethylamine, creatinine, taurine. […]
as §3, §4

[5] = target: T5, TAAR5 (Mus musculus, UniProt Q5QD14); settings: cited from earlier work
T5 sequence (Q5QD14 1-337): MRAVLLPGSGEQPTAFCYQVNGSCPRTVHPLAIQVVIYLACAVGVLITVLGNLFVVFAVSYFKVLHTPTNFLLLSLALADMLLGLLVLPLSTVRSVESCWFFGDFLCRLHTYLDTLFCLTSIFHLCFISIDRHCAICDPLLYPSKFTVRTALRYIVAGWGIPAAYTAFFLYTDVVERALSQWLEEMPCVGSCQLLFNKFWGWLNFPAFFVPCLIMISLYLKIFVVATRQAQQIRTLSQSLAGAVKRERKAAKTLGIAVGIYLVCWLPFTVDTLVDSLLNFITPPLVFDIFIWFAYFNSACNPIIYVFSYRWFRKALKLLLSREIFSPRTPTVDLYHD

CN1CCCCC1 [1-methylpiperidine]
EC50 [1]: 18.3 ± 0.4 µM | EC50 [2]: 0.08 ± 0.02 µM

CCCCCCCCN(C)C [N,N-DIMETHYLOCTYLAMINE, N,N-dimethyloctylamine]
EC50 [3]: 12.7 ± 6.2 µM

CCCCN(C)C [N,N-DIMETHYLBUTYLAMINE, N,N-dimethylbutylamine]
EC50 [4]: 20.1 ± 8.9 µM

CN(C)C [Trimethylamine, trimethylamine]
TAAR5 activation [5]: activates TAAR5
